# Source: ChEMBL document CHEMBL3272303
# The source made the active and inactive calls. The rule behind the calls is not given here.
# Legend:
# [1] = molecular target: Beta-1 adrenergic receptor (Cavia porcellus) (UniProt B0FL73); test: Antagonist activity at beta 1 adrenergic receptor in guinea pig right atria assessed as inhibition of 10^-3 M isoproterenol-induced chronotropic response at 10^-4 M
# [2] = molecular target: Beta-2 adrenergic receptor (Cavia porcellus) (UniProt Q8K4Z4); test: Antagonist activity at beta 2 adrenergic receptor in guinea pig trachea assessed as inhibition of trimetoquinol-induced tracheal relaxation at 10^-4 M preincubated for 30 mins followed by trimetoquinol addition measured within 1 hr
# [3] = molecular target: Beta-2 adrenergic receptor (Cavia porcellus) (UniProt Q8K4Z4); test: Agonist activity at beta 2 adrenergic receptor in guinea pig trachea assessed as tracheal relaxation at 10^-9 to 10^-4 M
# [4] = molecular target: Beta-1 adrenergic receptor (Cavia porcellus) (UniProt B0FL73); test: Competitive antagonist activity at beta 1 adrenergic receptor in guinea pig right atria assessed as inhibition of trimetoquinol-induced chronotropic response at 10^-6 to 10^-5 M preincubated for 30 mins followed by trimetoquinol addition measured within 1 hr
# [5] = molecular target: Beta-1 adrenergic receptor (Cavia porcellus) (UniProt B0FL73); test: Antagonist activity at beta 1 adrenergic receptor in guinea pig right atria assessed as inhibition of trimetoquinol-induced chronotropic response at 10^-4 M preincubated for 30 mins followed by trimetoquinol addition measured within 45 mins relative to control
# [6] = molecular target: Beta-1 adrenergic receptor (Cavia porcellus) (UniProt B0FL73); test: Antagonist activity at beta 1 adrenergic receptor in guinea pig right atria assessed as inhibition of 10^-3 M trimetoquinol-induced chronotropic response at 10^-4 M preincubated for 30 mins followed by trimetoquinol addition measured within 1 hr
# [7] = molecular target: Beta-2 adrenergic receptor (Rattus norvegicus) (UniProt P10608); test: Agonist activity at beta 2 adrenergic receptor in Sprague-Dawley rat adipocytes assessed as lipolysis at 10^-9 to 10^-4 M after 1 hr; assay type: cell-based
# [8] = molecular target: Beta-2 adrenergic receptor (Cavia porcellus) (UniProt Q8K4Z4); conditions: Trachea
# [9] = molecular target: Beta-1 adrenergic receptor (Cavia porcellus) (UniProt B0FL73); test: Partial agonist activity at beta 1 adrenergic receptor in guinea pig right atria assessed as chronotropic response measured over 3 mins
# Beta-1 adrenergic receptor (Cavia porcellus), sequence (B0FL73 1-467): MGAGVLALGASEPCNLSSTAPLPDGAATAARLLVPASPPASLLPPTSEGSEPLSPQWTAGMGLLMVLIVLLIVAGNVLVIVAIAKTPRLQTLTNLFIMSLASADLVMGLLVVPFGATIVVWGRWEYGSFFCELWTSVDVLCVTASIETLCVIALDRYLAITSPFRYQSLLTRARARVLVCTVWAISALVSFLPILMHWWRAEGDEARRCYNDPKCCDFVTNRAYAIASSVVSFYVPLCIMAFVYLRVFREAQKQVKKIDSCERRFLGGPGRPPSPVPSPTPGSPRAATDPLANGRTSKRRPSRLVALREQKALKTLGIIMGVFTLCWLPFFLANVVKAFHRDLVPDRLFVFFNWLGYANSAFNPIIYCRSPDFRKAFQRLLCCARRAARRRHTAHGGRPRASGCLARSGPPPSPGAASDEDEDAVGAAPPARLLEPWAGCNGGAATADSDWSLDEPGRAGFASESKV
# Beta-2 adrenergic receptor (Cavia porcellus), sequence (Q8K4Z4 whole entry, looked up): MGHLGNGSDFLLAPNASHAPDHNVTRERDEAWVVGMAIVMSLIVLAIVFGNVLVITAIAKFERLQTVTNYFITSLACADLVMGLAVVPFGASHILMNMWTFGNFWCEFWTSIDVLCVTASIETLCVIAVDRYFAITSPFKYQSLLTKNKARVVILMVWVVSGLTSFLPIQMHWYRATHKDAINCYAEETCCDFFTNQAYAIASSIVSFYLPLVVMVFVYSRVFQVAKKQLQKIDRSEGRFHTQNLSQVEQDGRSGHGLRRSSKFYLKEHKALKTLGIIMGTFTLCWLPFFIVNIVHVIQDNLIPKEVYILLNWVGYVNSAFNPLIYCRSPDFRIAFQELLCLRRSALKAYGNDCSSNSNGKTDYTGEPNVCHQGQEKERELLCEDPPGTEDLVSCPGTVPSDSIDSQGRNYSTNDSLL
# Beta-2 adrenergic receptor (Rattus norvegicus), sequence (P10608 whole entry, looked up): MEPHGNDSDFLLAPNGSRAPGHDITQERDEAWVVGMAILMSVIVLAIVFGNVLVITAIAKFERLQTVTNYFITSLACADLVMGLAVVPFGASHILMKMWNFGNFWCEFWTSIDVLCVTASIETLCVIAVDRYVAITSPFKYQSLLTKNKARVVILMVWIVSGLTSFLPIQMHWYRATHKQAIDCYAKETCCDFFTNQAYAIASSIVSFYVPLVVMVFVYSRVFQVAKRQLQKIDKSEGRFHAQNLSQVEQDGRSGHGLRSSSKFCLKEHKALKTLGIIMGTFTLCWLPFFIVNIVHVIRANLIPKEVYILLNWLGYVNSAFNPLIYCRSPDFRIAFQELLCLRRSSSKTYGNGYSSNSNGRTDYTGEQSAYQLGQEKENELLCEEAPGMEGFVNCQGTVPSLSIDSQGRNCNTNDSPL
Compound,inhibition [1],inhibition [2],Activity [3],inhibition [4],inhibition [5] [%],inhibition [6],Activity [7],pD2 [8],Activity [9]
COc1cc(CC2(Cc3ccccc3)NCCc3cc(O)c(O)cc32)cc(OC)c1OC (configuration not stated),Active,inactive,inactive,Active,< 10,Active,inactive,–,–
COc1cc(C[C@@H]2NCCc3cc(O)c(O)cc32)cc(OC)c1OC,–,–,–,–,–,–,–,7,–
COc1cc(CC2(C)NCCc3cc(O)c(O)cc32)cc(OC)c1OC (configuration not stated),–,inactive,inactive,–,–,–,inactive,–,Active
